According to patent publication US20230391785A1, “NITROGEN-CONTAINING HETEROCYCLIC COMPOUND, METHOD FOR PREPARING SAME AND USE OF SAME” (280 Bio, Inc., priority 2021, published 2023):
Read-outs that look alike come from different tables or passages of the source.

Tests used:
Format in all cases: cell-based
[1] = system: NCI-H358 cells (KRAS G12C mutation); assay: Proliferation inhibition measured by CTG (CellTiter Glo), NCI-H358; settings: Homo sapiens
Source text: (§1) NCI-H358 is a human non-small cell lung cancer cell line with KRAS G12C mutation; PANC-1 and AsPC-1 are pancreatic cancer cell lines with KRAS G12D mutation; AGS is a gastric cancer cell line with KRAS G12D mutation; A427 is a lung cancer cell line with KRAS G12D mutation; THP-1 is a leukemia cell line with NRAS G12D mutation; Hs 578T is a breast cancer cell line with HRAS G12D mutation; SW480 is a colon cancer cell lines with KRAS G12V mutation; A375 is a wild type malignant melanoma cell line. The proliferation inhibitory effect of the compounds on various mutations was evaluated by determining the proliferation inhibitory activity of the compounds on these cell lines.
(§2) The assay was conducted on either 384-well plates or 96-well plates. The procedures are as follows:
(§3) The cell suspensions were added to 384- or 96-well plates (384-well plate: 40 μL; 96-well plate: […]) except for peripheral wells. The plates were incubated in a carbon dioxide incubator overnight. Prepared compounds (10 concentration gradients by serial 3-fold dilution) were added to the wells. The cell plates were incubated in a carbon dioxide incubator for 120 hours. CellTiter Glo reagent (384 well plate: 25 μL; 96 well plate: 100 μL) was added to the 384- or 96-well plates. The plates were shaken for 10 minutes away from light, and incubated for 10 minutes. The plates were read by EnVision system. Inhibition curves were plotted using XLFit and IC50 values were calculated. “IC50>10 μM” is denoted by “*”, “10 μM≥IC50>1 μM” is denoted by “**”, “1 μM≥IC50>100 nM” is denoted by “***”, and “IC50≤100 nM” is denoted by “****”.

[2] = system: A427 lung cancer cell line (KRAS G12D mutation); assay: Proliferation inhibition measured by CTG (CellTiter Glo), A427; settings: Homo sapiens, A-427
Source text: as §1, §2, §3

[3] = system: AsPC-1 pancreatic cancer cell line (KRAS G12D mutation); assay: Proliferation inhibition measured by CTG (CellTiter Glo), AsPC-1; settings: Homo sapiens, ASPC1
Source text: as §1, §2, §3

[4] = system: A375 wild type malignant melanoma cell line; assay: Proliferation inhibition measured by CTG (CellTiter Glo), A375; settings: Homo sapiens, A-375
Source text: as §1, §2, §3

[5] = system: PANC-1 pancreatic cancer cell line (KRAS G12D mutation); assay: Proliferation inhibition measured by CTG (CellTiter Glo), PANC-1; settings: Homo sapiens, Table 2, 120 hours incubation
Source text: as §1, §2
The cell suspensions were added to 384- or 96-well plates (384-well plate: 40 μL; 96-well plate: […]) except for peripheral wells. The plates were incubated in a carbon dioxide incubator overnight. Prepared compounds (10 concentration gradients by serial 3-fold dilution) were added to the wells. The cell plates were incubated in a carbon dioxide incubator for 120 hours. CellTiter Glo reagent (384 well plate: 25 μL; 96 well plate: 100 μL) was added to the 384- or 96-well plates. […] The plates were read by EnVision system. Inhibition curves were plotted using XLFit and IC50 values were calculated. […]

A549 cells (G12S) = assay: Proliferation inhibition measured by CTG (CellTiter Glo), A549; settings: Homo sapiens, Table 2, 120 hours incubation
[6] = system: THP-1 leukemia cell line (NRAS G12D mutation); assay: Proliferation inhibition measured by CTG (CellTiter Glo), THP-1; settings: Homo sapiens
Source text: as §1, §2, §3

[7] = system: AGS gastric cancer cell line (KRAS G12D mutation); assay: Proliferation inhibition measured by CTG (CellTiter Glo), AGS
Source text: as §1, §2, §3

[8] = system: Hs 578T breast cancer cell line (HRAS G12D mutation); assay: Proliferation inhibition measured by CTG (CellTiter Glo), Hs 578T; settings: Homo sapiens
Source text: as §1, §2, §3

[9] = system: SW480 colon cancer cell line (KRAS G12V mutation); assay: Proliferation inhibition measured by CTG (CellTiter Glo), SW480; settings: Homo sapiens, Table 2, 120 hours incubation, read-out: IC50 SW480 (G12V)
Source text: as §1, §2, §3

RPMI 8226 cells (G12A) = assay: Proliferation inhibition measured by CTG (CellTiter Glo), RPMI 8226; settings: Homo sapiens, Table 2, 120 hours incubation
NCI-H647 cells (G13D) = assay: Proliferation inhibition measured by CTG (CellTiter Glo), NCI-H647; settings: Homo sapiens, Table 2, 120 hours incubation
[10] = Table 1, CTG, 120 hours incubation, class symbol, read-out: IC50 (H358)
[11] = Table 1, CTG, 120 hours incubation, class symbol
[12] = Table 1, CTG, 120 hours incubation, class symbol, read-out: IC50 (A375)
[13] = Table 1, number in parentheses, unit not given in Table 1 (legend and Table 2 use μM)
[14] = Table 1, CTG, 120 hours incubation, class symbol, read-out: IC50 (AGS)

IC50 [1, 10] | IC50 [2, 11] | IC50 [3, 11] | IC50 [4, 12] | IC50 [6, 11] | IC50 [7, 14] | IC50 [8, 11] | SMILES | also measured
0.1 to 1 µM | 0.1 to 1 µM | 0.1 to 1 µM | 0.1 to 1 µM | – | – | – | CN1CCC[C@H]1COc1nc(N2CCn3cncc3C2)c2ccc(-c3cccc4cccc(Cl)c34)cc2n1 [Compound 1] | –
≤ 0.1 µM | ≤ 0.1 µM | 0.1 to 1 µM | 0.1 to 1 µM | ≤ 0.1 µM | ≤ 0.1 µM | 0.1 to 1 µM | CN1CCC[C@H]1COc1nc2c(c(N3CCn4cncc4C3)n1)CCN(c1cccc3cccc(Cl)c13)C2 [Compound 2] | IC50 ([1]; Table 1, number in parentheses, no unit printed in Table 1 (Table 2 gives the same values of compound 2 in μM), read-out: IC50 (H358)): 0.063 µM; IC50 ([1]; Table 2, CTG, 120 hours incubation, read-out: IC50 H358 (G12C)): 0.063 µM; IC50 [2, 13]: 0.07 µM; IC50 [5]: 193 nM; IC50 (A549 cells (G12S)): 253 nM; IC50 [6, 13]: 0.067 µM; IC50 ([7]; Table 1, number in parentheses, unit not given in Table 1 (Table 2 gives the same value in μM), read-out: IC50 (AGS)): 0.092 µM; IC50 ([7]; Table 2, CTG, 120 hours incubation, read-out: IC50 AGS (G12D)): 0.092 µM; IC50 [8, 13]: 0.237 µM; IC50 [3, 13]: 0.139 µM; IC50 ([4]; Table 1, number in parentheses, unit not given in Table 1 (Table 2 gives the same value in μM), read-out: IC50 (A375)): 0.167 µM; IC50 ([4]; Table 2, CTG, 120 hours incubation, read-out: IC50 A375 (wide type)): 0.167 µM; IC50 [9]: 98 nM; IC50 (RPMI 8226 cells (G12A)): 128 nM; IC50 (NCI-H647 cells (G13D)): 115 nM
1 to 10 µM | 0.1 to 1 µM | 1 to 10 µM | 0.1 to 1 µM | – | – | – | CN1CCC[C@@H]1COc1nc2c(c(N3CCn4cncc4C3)n1)CO[C@H](c1cccc3cccc(Cl)c13)C2 [Compound 4] | –
0.1 to 1 µM | 0.1 to 1 µM | 0.1 to 1 µM | 0.1 to 1 µM | – | – | – | CN1CCC[C@H]1COc1nc2c(c(N3CCn4c(cnc4CO)C3)n1)CCN(c1cccc3cccc(Cl)c13)C2 [Compound 6] | –
0.1 to 1 µM | 0.1 to 1 µM | 1 to 10 µM | 0.1 to 1 µM | – | – | – | CN1CCC[C@H]1COc1nc2c(c(N3CCn4c(cnc4N)C3)n1)CCN(c1cccc3cccc(Cl)c13)C2 [Compound 7] | –
1 to 10 µM | 0.1 to 1 µM | 1 to 10 µM | 0.1 to 1 µM | – | – | – | CN1CCC[C@H]1COc1nc2c(c(N3CCn4c(cnc4C#N)C3)n1)CCN(c1cccc3cccc(Cl)c13)C2 [Compound 8] | –
≤ 0.1 µM | ≤ 0.1 µM | ≤ 0.1 µM | 0.1 to 1 µM | – | ≤ 0.1 µM | – | CN1CCC[C@H]1COc1nc2c(c(N3CCn4cnc(C#N)c4C3)n1)CCN(c1cccc3cccc(Cl)c13)C2 [Compound 9] | –
0.1 to 1 µM | 0.1 to 1 µM | 0.1 to 1 µM | 0.1 to 1 µM | – | – | – | CN1CCC[C@H]1COc1nc2c(c(N3CCn4nncc4C3)n1)CCN(c1cccc3cccc(Cl)c13)C2 [Compound 10] | –
0.1 to 1 µM | 0.1 to 1 µM | 0.1 to 1 µM | 0.1 to 1 µM | – | – | – | CC1CN(c2nc(OC[C@@H]3CCCN3C)nc3c2CCN(c2cccc4cccc(Cl)c24)C3)Cc2cncn21 (stereo partly drawn) [Compound 11] | –
0.1 to 1 µM | ≤ 0.1 µM | ≤ 0.1 µM | 0.1 to 1 µM | – | – | – | CN(C)CCOc1nc2c(c(N3CCn4cncc4C3)n1)CCN(c1cccc3cccc(Cl)c13)C2 [Compound 16] | –
0.1 to 1 µM | 0.1 to 1 µM | 0.1 to 1 µM | 0.1 to 1 µM | – | – | – | Cc1cccc2cccc(N3CCc4c(nc(OC[C@@H]5CCCN5C)nc4N4CCn5cncc5C4)C3)c12 [Compound 17] | –
0.1 to 1 µM | – | 1 to 10 µM | 1 to 10 µM | 1 to 10 µM | 1 to 10 µM | 1 to 10 µM | CN1CCO[C@@H](COc2nc3c(c(N4CCn5cncc5C4)n2)CCN(c2cccc4cccc(Cl)c24)C3)C1 [Compound 32] | –
≤ 0.1 µM | – | 0.1 to 1 µM | 0.1 to 1 µM | ≤ 0.1 µM | ≤ 0.1 µM | 0.1 to 1 µM | CN1CCC[C@H]1COc1nc2c(c(N3CCn4cnc(Br)c4C3)n1)CCN(c1cccc3cccc(Cl)c13)C2 [Compound 33] | –
0.1 to 1 µM | – | 0.1 to 1 µM | 1 to 10 µM | 0.1 to 1 µM | 0.1 to 1 µM | 1 to 10 µM | CN1CCC[C@H]1COc1nc2c(c(N3CCc4oncc4C3)n1)CCN(c1cccc3cccc(Cl)c13)C2 [Compound 34] | –
0.1 to 1 µM | – | 1 to 10 µM | 1 to 10 µM | 1 to 10 µM | 1 to 10 µM | 1 to 10 µM | CN1CCC2(CC1)CC(Oc1nc3c(c(N4CCn5cncc5C4)n1)CCN(c1cccc4cccc(Cl)c14)C3)C2 [Compound 35] | –
